The values below come from patent publication EP3222712A1, “ALCOHOL DEHYDROGENASE FROM PICHIA PASTORIS AND USE THEREOF” (priority 2016, dated 2017).

Molecules are shown by their SMILES. A value given as a limit tells only on which side of the number the result lay.

For test [1], the system named is alcohol dehydrogenase from Pichia pastoris (PPADH). In words: biotransformation by purified PPADH with GDH co-factor regeneration, gas chromatography. Type of test: biochemical. Conditions: 2 hours reaction time.
The target in test [2] is T1, alcohol dehydrogenase from Pichia pastoris (PPADH) (Komagataella phaffii, UniProt C4R4L0). As to the kind of experiment: photometric assay, reduction of aldehydes and ketones by purified PPADH (NADPH, 340 nm). It counts as biochemical, Pichia pastoris GS 115. The note with it: for relative activity: 38.6 U/mg with benzaldehyde set to 100%; for specific activity: purified PPADH, 10 mM substrate (sample 4: 20 mM), 0.2 mM NADPH, tris HCl pH 7, 25°C. The method, then: (§1) In a first step, crude extract containing recombinant alcohol dehydrogenase from Pichia pastoris via cell disruption of E. coli BL21(DE3) overexpressing in vector pET28a-PPADH carrying an N-terminal 6xHis tag. Cells were resuspended in 10 mM tris HCl buffer (pH 7) to yield a 25% cell suspension and were disrupted by sonification under cooling. Three cycles of 2 min of 25% power output followed by 1 min cooling were used. After repeated centrifugation a cell-free crude extract was obtained. Afterwards the PPADH was purified as described in example 3c).
T1 sequence (C4R4L0 entry or part of it): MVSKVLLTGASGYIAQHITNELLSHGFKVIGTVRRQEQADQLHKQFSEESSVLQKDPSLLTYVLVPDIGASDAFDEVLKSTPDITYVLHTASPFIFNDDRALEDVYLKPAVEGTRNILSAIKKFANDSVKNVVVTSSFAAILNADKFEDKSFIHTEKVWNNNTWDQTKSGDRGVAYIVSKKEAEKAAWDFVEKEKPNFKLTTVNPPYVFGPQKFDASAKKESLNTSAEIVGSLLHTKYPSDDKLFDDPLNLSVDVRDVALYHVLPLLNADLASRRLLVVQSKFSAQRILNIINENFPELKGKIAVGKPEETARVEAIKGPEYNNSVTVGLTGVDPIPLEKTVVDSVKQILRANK
(§2) Determination of the enzymatic activity of the purified PPADH can be determined via a oxidation or reduction reaction. For determination of the reduction the following compounds were used: tris HCl buffer (100 mM, pH 7), 0.2 mM NADPH, 10 mM substrate selected from the aldehydes and ketones as given in Table 2 and 10 µl enzyme (purified PPADH). For determination of the oxidation the following compounds were used: tris HCl buffer (100 mM, pH 9), 0.2 mM NADP^+, 10 mM substrate selected from the alcohols as given in Table 3 and 10 µl enzyme (purified PPADH). The reaction was performed in 1 cm-cuvettes. The compounds were mixed in the cuvette used for the experiment, which was placed in the photometer and data recording was started. The enzyme solution was added only immediately before the start of the measurement. The activity of the enzyme was determined by photometric detection of the concentration of NADPH after a certain time interval. Measurement was carried out at a temperature of 25°C, a wavelength of 340 nm and over a time interval of 1 min. Table 2: enzymatic activity of PPADH regarding the reduction of different substrates determined by photometry

Test [3] addresses T1, alcohol dehydrogenase from Pichia pastoris (PPADH). As to the kind of experiment: photometric assay, oxidation of alcohols by purified PPADH (NADP+, 340 nm). Type of test: biochemical, Pichia pastoris GS 115. The note with it: for specific activity: purified PPADH, 10 mM substrate, 0.2 mM NADP+, tris HCl pH 9, 25°C; for relative activity: 6.6 U/mg set to 100%. The method, then: as §1
as §2, with “min.” for “min. Table 2: enzymatic activity of PPADH regarding the reduction of different substrates determined by photometry”

[4] abbreviates: acetophenone derivatives, related to the alcohol formed.

For `COC(C)(CC(C)=O)c1ccccc1` (racemic) [NOD-VI-405], the level of turnover result in test [1] (CF3-ketone derivatives) was “+++ (+++ =20-55 %)”. In test [1] (CF3-ketone derivatives, alcohol formed related to the reduction of (S)-ketone), this compound yielded a turnover of 20.3%.

Turning to `CC(=O)CC(O)(c1ccc(Cl)cc1)C(F)(F)F` (racemic) [Nod362], in test [1] (CF3-ketone derivatives), the level of turnover result is listed as “+++++ (+++++ = 75 - 100 %)” and the turnover entry is “quant”.

Consider `CC(=O)CC(O)(c1ccccc1)C(F)(F)F` (racemic) [compound 4], for which, in test [2], the relative activity is reported as 97.2% and the specific activity was 37.5 U/mg.

As for `CCC(O)CO` (stereo not drawn) [1,2-butanediol], the specific activity in test [3] was < 0.5 U/mg.

For `CC(O)CO` (stereo not drawn) [1,2-propanediol], in test [3], the specific activity is given as < 0.5 U/mg.

Take `CC(O)c1ccc(Cl)cc1` (stereo not drawn) [1-(4-chlorophenyl)ethanol]: the specific activity in test [3] is < 0.5 U/mg.

Turning to `C=CC(O)CC` (stereo not drawn) [1-penten-3-ol], in test [3], the specific activity was < 0.5 U/mg.

For the compound `O=C(c1ccccc1Br)C(F)(F)F` [2'-Bromo-2,2,2-trifluoroacetophenone], in test [1] (acetophenone derivatives), the level of turnover entry is reported as “+ (+=1-5%)”. Besides, the turnover in test [1] (setting [4]) is listed as <5%.

Take `COc1ccccc1C(C)=O` [2'-Methoxyacetophenone]: in test [1] (acetophenone derivatives), the level of turnover result is “+ (+=1-5%)”. In addition, the turnover in test [1] (setting [4]) is recorded as <5%.

Take `CC(=O)c1ccccc1Br` [2'-bromoacetophenone]: the level of turnover result in test [1] (acetophenone derivatives) was “+ (+=1-5%)”. In addition, the turnover in test [1] (setting [4]) was <5%.

In the case of `CC(O)C(C)O` (stereo not drawn) [2,3-butanediol], the specific activity in test [3] is < 0.5 U/mg.

On to `OC1C=CCCC1` (stereo not drawn) [2-cyclohexen-1-ol], for which, in test [3], the specific activity is listed as < 0.5 U/mg.

As to `CCCCC(C)=O` [2-hexanone], in test [2], the specific activity was < 0.5 U/mg.

`CCCCCCCC(C)=O` [2-nonanone]: the specific activity in test [2] was < 0.5 U/mg.

Take `CCCCCCC(C)=O` [2-octanone]: the specific activity in test [2] is listed as < 0.5 U/mg.

As for `CC(CO)c1ccccc1` (stereo not drawn) [2-phenyl-1-propanol], the specific activity in test [3] is < 0.5 U/mg.

On to `CC1CC(=O)CC(C)(C)C1` (stereo not drawn) [3,3,5-trimethylcyclohexanone], for which the specific activity in test [2] was < 0.5 U/mg.

As for `CCC(=O)C(O)CC` (stereo not drawn) [4-hydoxy-3-hexanone], in test [2], the specific activity is on record as < 0.5 U/mg.

In the case of `COC(C)(C)CC(C)=O` [4-methoxy-4-metyhl-2-pentanone], the specific activity in test [2] is recorded as < 0.5 U/mg.

Take `CC(=O)CC(C)C` [4-methyl-2-pentanone]: in test [2], the specific activity was < 0.5 U/mg.

Regarding `CC(C)=C1CC[C@@H](C)CC1=O` [(+)-pulegon], the specific activity in test [2] is recorded as < 0.5 U/mg.

Consider `C=C(C)[C@@H]1CC=C(C)C(=O)C1` [(-)-carvone], for which, in test [2], the specific activity is reported as < 0.5 U/mg.

As for `CC(C)[C@@H]1CC[C@@H](C)CC1=O` [(-)-menthone], the specific activity in test [2] was < 0.5 U/mg.

Consider `C[C@@H](O)c1ccccc1` [(R)-(+)-1-phenylethanol], for which the specific activity in test [3] is < 0.5 U/mg.

As for `CCCCCC[C@@H](C)O` [(R)-(-)-2-octanol], the specific activity in test [3] is given as < 0.5 U/mg.

For the compound `C=CCC[C@@H](C)O` [(R)-(-)-5-hexen-2-ol], in test [3], the specific activity is given as < 0.5 U/mg.

In the case of `CC[C@H](N)CO` [(S)-(+)-2-amino-1-butanol], in test [3], the specific activity is reported as < 0.5 U/mg.

Consider `CC[C@H](C)O` [(S)-(+)-2-butanol], for which the specific activity in test [3] is < 0.5 U/mg.

On to `CC(C)=O` [acetone], for which the specific activity in test [2] was < 0.5 U/mg.

As to `CC(=O)CCc1ccccc1` [benzylacetone], the specific activity in test [2] is given as < 0.5 U/mg.

With `OCc1ccccc1` [benzylalcohol], the specific activity in test [3] was < 0.5 U/mg.

`O=Cc1ccccc1` [compound 1, benzaldehyde]: in test [2], the relative activity is 100.0% and the specific activity is on record as 38.6 U/mg.

Take `CC(=O)c1ccccc1` [compound 2]: in test [2], the relative activity was 0.2% and the specific activity is 0.06 U/mg.

With `O=C(c1ccccc1)C(F)(F)F` [compound 3], in test [2], the relative activity is recorded as 0.3% and the specific activity turned out to be 0.10 U/mg.

Regarding `CCCC=O` [compound 5], in test [2], the relative activity is on record as 176.2% and the specific activity is 68.0 U/mg.

Take `CCCC(C)C=O` (stereo not drawn) [compound 6]: in test [2], the relative activity is 248.9% and the specific activity is recorded as 96.1 U/mg.

As for `CCCCCC=O` [compound 7], in test [2], the relative activity amounted to 73.9% and the specific activity is reported as 28.5 U/mg.

As for `CCC/C=C/C=O` [compound 8], in test [2], the relative activity is 97.2% and the specific activity worked out at 37.5 U/mg.

In the case of `CC(C)=CCC/C(C)=C/C=O` [compound 9], in test [2], the relative activity came to 46.1% and the specific activity is 17.8 U/mg.

`CC(C)=CCCC(C)CC=O` (stereo not drawn) [compound 10]: in test [2], the relative activity stood at 71.9% and the specific activity was 27.8 U/mg.

In the case of `CCOC(=O)C(Cl)C(C)=O` (stereo not drawn) [compound 11], in test [2], the relative activity came to 14.7% and the specific activity stood at 5.7 U/mg.

Turning to `CCOC(=O)CC(=O)CCl` [compound 12], in test [2], the relative activity amounted to 98.3% and the specific activity was found to be 38.0 U/mg.

`CCCC(=O)CC(=O)OCC` [compound 13]: in test [2], the relative activity stood at 1.3% and the specific activity is on record as 0.5 U/mg.

In the case of `CC(=O)CC(C)=O` [compound 14], in test [2], the relative activity came to 8.5% and the specific activity is recorded as 3.3 U/mg.

Consider `C[C@@H](CO)c1ccccc1` [compound 15], for which, in test [3], the relative activity is on record as 16.0% and the specific activity was determined as 1.06 U/mg.

On to `OCCc1ccccc1Br` [compound 16], for which, in test [3], the relative activity stood at 29.3% and the specific activity was determined as 1.94 U/mg.

With `CCCCO` [compound 17], in test [3], the relative activity amounted to 16.7% and the specific activity was 1.11 U/mg.

Take `CCCC(C)CO` (stereo not drawn) [compound 18]: in test [3], the relative activity was 30.9% and the specific activity came to 2.04 U/mg.

Consider `CCCC(C)O` (stereo not drawn) [compound 19], for which, in test [3], the relative activity worked out at 38.3% and the specific activity came out at 2.53 U/mg.

On to `C/C=C/C(C)O` (stereo not drawn) [compound 20], for which, in test [3], the relative activity was determined as 19.5% and the specific activity was 1.29 U/mg.

Turning to `CCCCC(C)O` (stereo not drawn) [compound 22], in test [3], the relative activity worked out at 54.9% and the specific activity came to 3.62 U/mg.

On to `CCCC[C@H](C)O` [compound 23], for which, in test [3], the relative activity stood at 100.0% and the specific activity is 6.61 U/mg.

As for `C=CCC[C@H](C)O` [compound 24], in test [3], the relative activity is 57.4% and the specific activity worked out at 3.79 U/mg.

For `CCCCC[C@H](C)O` [compound 25], in test [3], the relative activity was found to be 31.6% and the specific activity is recorded as 2.09 U/mg.

In the case of `CCCCCCC(C)O` (stereo not drawn) [compound 26], in test [3], the relative activity turned out to be 8.7% and the specific activity was 0.57 U/mg.

With `CC(C)=CCCC(C)=CCO` [compound 27], in test [3], the relative activity stood at 32.7% and the specific activity worked out at 2.16 U/mg.

For the compound `CC(C)=CCCC(C)=CCO` [compound 28], in test [3], the relative activity was 18.0% and the specific activity came to 1.19 U/mg.

Consider `OC1CCCCC1` [cyclohexanol], for which the specific activity in test [3] is given as < 0.5 U/mg.

On to `O=C1C=CCCC1` [cyclohexen-1-on], for which, in test [2], the specific activity is < 0.5 U/mg.

For the compound `CC1(C)COC(=O)C1=O` [dihydro-4,4-dimethyl-2,3-furandion], the specific activity in test [2] is < 0.5 U/mg.

As to `CCOC(C)=O` [ethylacetate], the specific activity in test [2] was < 0.5 U/mg.

Consider `CC12CCC(C1)C(C)(C)C2=O` (stereo not drawn) [fenchon], for which the specific activity in test [2] was < 0.5 U/mg.

Consider `C=CC(O)CCCCC` (stereo not drawn) [octen-3-ol], for which, in test [3], the specific activity was < 0.5 U/mg.

As for `CCC(=O)c1ccccc1` [propiophenone], the specific activity in test [2] is recorded as < 0.5 U/mg.
